Data as given in PubChem BioAssay AID248 (DTP/NCI, 2004).
Several values for one entry are separate records, joined by “and”; a condition that tells them apart may be missing. Equal values may be shown once. Toxic doses and inconclusive results are not listed. No stated cut-off is given here; in the data, active means T/C of 150% or more; inactive means T/C below 125%.

System: L1210 leukemia ip in BDF1 mice, survival T/C
Assay: NCI In Vivo Anticancer Drug Screen. Data for tumor model L1210 Leukemia (intraperitoneal) in B6D2F1 (BDF1) mice
Settings: endpoint: mean survival time, higher = longer survival
In short: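 Mice bearing the transplanted tumor received compound or vehicle. Survival of the treated group was divided by that of the vehicle-treated control group to give the ratio.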

[1] = dose: 100.0 mg/kg/injection, schedule: Q01DX001 (ip), vehicle: carboxymethylcellulose (CMC)
[2] = dose: 200.0 mg/kg/injection, schedule: Q01DX001 (ip), vehicle: carboxymethylcellulose (CMC)
[3] = dose: 400.0 mg/kg/injection, schedule: Q01DX001 (ip), vehicle: carboxymethylcellulose (CMC)
[4] = dose: 100.0 mg/kg/injection, schedule: Q04DX003 (ip), vehicle: saline with Tween-80
[5] = dose: 200.0 mg/kg/injection, schedule: Q04DX003 (ip), vehicle: saline with Tween-80
[6] = dose: 400.0 mg/kg/injection, schedule: Q04DX003 (ip), vehicle: saline with Tween-80
[7] = dose: 25.0 mg/kg/injection, schedule: Q04DX003 (ip), vehicle: Klucel (hydroxypropylcellulose) (HPC)
[8] = dose: 50.0 mg/kg/injection, schedule: Q04DX003 (ip), vehicle: Klucel (hydroxypropylcellulose) (HPC)
[9] = dose: 100.0 mg/kg/injection, schedule: Q01DX001 (ip), vehicle: saline
[10] = dose: 100.0 mg/kg/injection, schedule: Q04DX003 (ip), vehicle: Klucel (hydroxypropylcellulose) (HPC)
[11] = dose: 100.0 mg/kg/injection, schedule: Q01DX009 (ip), vehicle: Klucel (hydroxypropylcellulose) (HPC)
[12] = dose: 50.0 mg/kg/injection, schedule: Q04DX003 (ip), vehicle: saline with Tween-80
[13] = dose: 100.0 mg/kg/injection, schedule: Q04DX002 (ip), vehicle: saline with Tween-80
[14] = dose: 200.0 mg/kg/injection, schedule: Q04DX002 (ip), vehicle: saline with Tween-80
[15] = dose: 100.0 mg/kg/injection, schedule: Q01DX001 (ip), vehicle: other
[16] = dose: 100.0 mg/kg/injection, schedule: Q01DX009 (ip), vehicle: saline with Tween-80
[17] = dose: 200.0 mg/kg/injection, schedule: Q01DX009 (ip), vehicle: saline with Tween-80
[18] = dose: 400.0 mg/kg/injection, schedule: Q04DX002 (ip), vehicle: saline with Tween-80

Measured: T/C

NS(=O)(=O)c1ccc(NC(=O)Nc2ccc(F)cc2)cc1
inactive: [1] 99 % of control | dose: 100.0 mg/kg/injection, schedule: Q01DX009 (ip), vehicle: carboxymethylcellulose (CMC) 94 % of control and 101 % of control | dose: 100.0 mg/kg/injection, schedule: Q04DX002 (ip), vehicle: carboxymethylcellulose (CMC) 92 % of control and 100 % of control | dose: 100.0 mg/kg/injection, schedule: Q04DX003 (ip), vehicle: carboxymethylcellulose (CMC) 93 % of control | [2] 96 % of control | dose: 200.0 mg/kg/injection, schedule: Q01DX009 (ip), vehicle: carboxymethylcellulose (CMC) 94 % of control and 100 % of control | dose: 200.0 mg/kg/injection, schedule: Q04DX002 (ip), vehicle: carboxymethylcellulose (CMC) 100 % of control and 89 % of control | dose: 200.0 mg/kg/injection, schedule: Q04DX003 (ip), vehicle: carboxymethylcellulose (CMC) 104 % of control | [3] 99 % of control | dose: 400.0 mg/kg/injection, schedule: Q01DX009 (ip), vehicle: carboxymethylcellulose (CMC) 94 % of control and 101 % of control | dose: 400.0 mg/kg/injection, schedule: Q04DX002 (ip), vehicle: carboxymethylcellulose (CMC) 100 % of control and 102 % of control | dose: 400.0 mg/kg/injection, schedule: Q04DX003 (ip), vehicle: carboxymethylcellulose (CMC) 104 % of control

c1ccc([B-](c2ccccc2)([C+]2CCCCC2)N2CCCCC2)cc1
inactive: dose: 75.0 mg/kg/injection, schedule: Q01DX001 (ip), vehicle: carboxymethylcellulose (CMC) 104 % of control | dose: 150.0 mg/kg/injection, schedule: Q01DX001 (ip), vehicle: carboxymethylcellulose (CMC) 100 % of control

CCN(Cc1cc(OC)c(OC)c(OC)c1)C1CCCCC1
inactive: dose: 50.0 mg/kg/injection, schedule: Q01DX009 (ip), vehicle: saline 113 % of control | dose: 100.0 mg/kg/injection, schedule: Q01DX009 (ip), vehicle: saline 98 % of control

CCCCC(=O)Nc1cccc(OC(=O)NC)c1
inactive: [4] 92 % of control | [5] 95 % of control | [6] 87 % of control

CC(=O)Oc1cccc(/C=C2/N=C(C)OC2=O)c1
inactive: [7] 108 % of control | [8] 105 % of control | [9] 92 % of control | [10] 97 % of control | dose: 200.0 mg/kg/injection, schedule: Q01DX001 (ip), vehicle: saline 92 % of control | dose: 400.0 mg/kg/injection, schedule: Q01DX001 (ip), vehicle: saline 90 % of control

NCc1cn(C2OC(CO)C(O)C2O)c2ncnc(N)c12 (configuration not stated)
inactive: dose: 1.56 mg/kg/injection, schedule: Q01DX009 (ip), vehicle: saline 90 % of control | dose: 3.12 mg/kg/injection, schedule: Q01DX005 (ip), vehicle: saline 92 % of control | dose: 3.12 mg/kg/injection, schedule: Q01DX009 (ip), vehicle: saline 107 % of control | dose: 6.25 mg/kg/injection, schedule: Q01DX005 (ip), vehicle: saline 108 % of control

O=C(Nc1ccc(Cl)c([N+](=O)[O-])c1)N(CC(O)c1ccccc1)C1CCCCC1 (configuration not stated)
inactive: [11] 93 % of control | dose: 200.0 mg/kg/injection, schedule: Q01DX009 (ip), vehicle: Klucel (hydroxypropylcellulose) (HPC) 93 % of control | dose: 400.0 mg/kg/injection, schedule: Q01DX009 (ip), vehicle: Klucel (hydroxypropylcellulose) (HPC) 87 % of control

NC(Cc1ccccc1)C(=O)NCCCl (configuration not stated)
inactive: dose: 10.0 mg/kg/injection, schedule: Q01DX Z (ip), vehicle: saline 86 % of control | dose: 30.0 mg/kg/injection, schedule: Q01DX Z (ip), vehicle: saline 93 % of control | dose: 300.0 mg/kg/injection, schedule: Q01DX Z (ip), vehicle: saline 96 % of control

CCCCS(=O)(=O)N1CCCC(C)C1 (configuration not stated)
inactive: dose: 100.0 mg/kg/injection, schedule: Q04DX002 (ip), vehicle: Klucel (hydroxypropylcellulose) (HPC) 100 % of control | dose: 200.0 mg/kg/injection, schedule: Q04DX002 (ip), vehicle: Klucel (hydroxypropylcellulose) (HPC) 107 % of control | dose: 400.0 mg/kg/injection, schedule: Q04DX002 (ip), vehicle: Klucel (hydroxypropylcellulose) (HPC) 103 % of control

COC12OCC(O)C1OC(=O)C2O (configuration not stated)
inactive: dose: 50.0 mg/kg/injection, schedule: Q04DX002 (ip), vehicle: saline 91 % of control | dose: 100.0 mg/kg/injection, schedule: Q04DX002 (ip), vehicle: saline 91 % of control | dose: 200.0 mg/kg/injection, schedule: Q04DX002 (ip), vehicle: saline 95 % of control

Cc1c2ccccc2cc2[n+]1CCc1ccccc1-2
inactive: [12] 100 % of control | dose: 100.0 mg/kg/injection, schedule: Q01DX001 (ip), vehicle: saline with Tween-80 98 % of control | [4] 105 % of control | dose: 200.0 mg/kg/injection, schedule: Q01DX001 (ip), vehicle: saline with Tween-80 96 % of control | [5] 107 % of control

C=CC1(C)C=C2CCC3C(C)(C(=O)O)CCCC3(C)C2CC1 (configuration not stated)
inactive: [13] 106 % of control | [14] 95 % of control

COc1cc(OCc2ccccc2)c(CC(=O)O)c([N+](=O)[O-])c1
inactive: [15] 104 % of control | dose: 100.0 mg/kg/injection, schedule: Q01DX009 (ip), vehicle: other 93 % of control | dose: 100.0 mg/kg/injection, schedule: Q04DX003 (ip), vehicle: other 100 % of control | dose: 200.0 mg/kg/injection, schedule: Q01DX001 (ip), vehicle: other 100 % of control | dose: 200.0 mg/kg/injection, schedule: Q01DX009 (ip), vehicle: other 106 % of control | dose: 200.0 mg/kg/injection, schedule: Q04DX003 (ip), vehicle: other 94 % of control | dose: 400.0 mg/kg/injection, schedule: Q01DX001 (ip), vehicle: other 94 % of control | dose: 400.0 mg/kg/injection, schedule: Q01DX009 (ip), vehicle: other 103 % of control | dose: 400.0 mg/kg/injection, schedule: Q04DX003 (ip), vehicle: other 94 % of control

COc1ccc2c(c1)C1(C)CCCC(C)(C(N)=O)C1CC2 (configuration not stated)
inactive: [1] 101 % of control | [2] 93 % of control | [3] 98 % of control

Cc1cc(C)c(S(=O)(=O)O)c(Cc2ccc3ccccc3c2)c1
inactive: [9] 94 % of control

Oc1ccccc1OB(Oc1ccccc1O)N(CCCl)CCCl
inactive: [15] 111 % of control

CC(C)NNC(=O)c1ccc(Cl)cc1
inactive: dose: 25.0 mg/kg/injection, schedule: Q01DX009 (ip), vehicle: Klucel (hydroxypropylcellulose) (HPC) 92 % of control | [7] 96 % of control | dose: 50.0 mg/kg/injection, schedule: Q01DX009 (ip), vehicle: Klucel (hydroxypropylcellulose) (HPC) 93 % of control | [8] 89 % of control | [11] 103 % of control | [16] 88 % of control | [10] 94 % of control | [17] 98 % of control | dose: 200.0 mg/kg/injection, schedule: Q04DX003 (ip), vehicle: Klucel (hydroxypropylcellulose) (HPC) 86 % of control | dose: 400.0 mg/kg/injection, schedule: Q01DX009 (ip), vehicle: saline with Tween-80 90 % of control | dose: 400.0 mg/kg/injection, schedule: Q04DX003 (ip), vehicle: Klucel (hydroxypropylcellulose) (HPC) 102 % of control

O=C1c2ccccc2C(=O)N1CNc1ccccc1/C(=N/Nc1ccc([N+](=O)[O-])cc1[N+](=O)[O-])c1ccccc1
inactive: [13] 91 % of control | [14] 91 % of control | [18] 94 % of control

COc1cc(\C=N/N=C/C=C/c2ccccc2)cc(OC)c1OC
inactive: [12] 95 % of control | [13] 87 % of control and 90 % of control | [14] 104 % of control and 113 % of control | [18] 102 % of control and 103 % of control | [6] 93 % of control and 88 % of control

O=C1CN(CCN2CC(=O)N(c3ccccc3)C2=S)C(=S)N1Cc1ccccc1
inactive: dose: 50.0 mg/kg/injection, schedule: Q01DX009 (ip), vehicle: saline with Tween-80 96 % of control | [16] 90 % of control | [17] 94 % of control

NCCc1cc(O)c(O)c(S(=O)(=O)c2ccccc2)c1
inactive: dose: 87.5 mg/kg/injection, schedule: Q01DX009 (ip), vehicle: saline 96 % of control | dose: 175.0 mg/kg/injection, schedule: Q01DX009 (ip), vehicle: saline 94 % of control | dose: 350.0 mg/kg/injection, schedule: Q01DX009 (ip), vehicle: saline 115 % of control
